In patent US11541037B2, “Alkaloids from sponge, scaffolds for the inhibition of human immunodeficiency virus (HIV)” (King Abdullah University of Science and Technology, priority 2014, dated 2023):
≈ marks a conversion by molar mass, not a printed value. Entries after “also recorded” stand apart in the source; their conditions may differ. Read-outs that look alike come from different tables or passages of the source.

Columns and labels:
LC5-RIC cells = assay: MTT cell proliferation (vitality) assay of infected LC5-RIC cells; type: cell-based; details: for concentrations at which cytotoxicity was observed / cytotoxicity (in words): LC5-RIC cells; for cytotoxicity (in words): tested concentrations 3.1-50 μM
Experimental: The colorimetric assay […] was used in order to assess the viability and activity of LC5-RIC cells exposed to the unknown sponge mixtures, SPE fraction 1 and HPLC fractions 1-11, for three biological replicates. This cell vitality assay provides a visualization of the process where mitochondrial enzymes reduce the yellow MTT to purple formazan (ATCC, MTT cell proliferation assay). After reading the HIV reporter expression, cultures were incubated with 100 μl of MTT solution (0.5 mg of […]; Sigma, Taufkirchen, Germany) in 100 μl of culture medium for 2 hours. MTT solution was removed and 100 μl of lysis solution (10% [wt/vol] SDS and 0.6% [vol/vol] acetic acid in dimethyl sulfoxide [DMSO]) was added. The formazan concentrations of the test compounds and the uninfected control cultures were determined by an ELISA plate reader (Tecan Infinite M200, Tecan Germany GmbH, Crailsheim) and scanned with a test wavelength of 570 nm and a reference wavelength of 630 nm.

[1] = biological target: T1, HIV-1 reverse transcriptase (Human immunodeficiency virus type 1 group M subtype B, UniProt P04585); assay: HIV-1 reverse transcriptase biochemical assay (EnzChek); details: for anti-HIV-1 RT activity (in words): screened at 3.1-100 μM
T1 construct: The reverse transcriptase is a heterodimer with the p66 and the p51 subunits; purchased Calbiochem, Merck-Millipore
Experimental: The HIV-1 reverse transcriptase inhibition assay was carried out using the commercial kit EnzChek® Reverse Transcriptase Assay (Invitrogen, San Jose, Calif., USA). The reverse transcriptase is a heterodimer with the p66 and the p51 subunits with RNase H activity located in the last 15 KDa of the p66 HIV Reverse transcriptase (Calbiochem, Merck-Millipore). Polymerase activity was assessed by its ability to produce RNA-DNA heteroduplexes from a mixture of a long poly (A) template, an oligo dT primer and dTTP which is then detected by PicoGreen® dsDNA quantitation reagent. The single compound and controls were performed in triplicated in a 384-well plate format, each with a total reaction mixture of 50 μL. To begin, the poly (A) template was annealed to the oligo dT primer for one hour, then diluted 200 fold in polymerization buffer. Reverse transcriptase (1.2 μl) was added per 300 reactions. This mixture was kept on ice and aliquoted to each well with test compounds. The reaction was incubated at room temperature for one hour and then 2 μl of […] EDTA was added to stop the reaction. The RNA-DNA heteroduplex was labeled with PicoGreen and incubated for 5 minutes and then detected with the use of a SpectraMax® Paradigm® Multi-mode Microplate Detection Platform (Molecular Devices, Sunnyvale, Calif., USA) by scanning at 480 nm excitation wavelength and 520 nm emission wavelength. […] Statistical significances were determined using a one-way ANOVA.

HIV-1 [2] = tested on: HIV-1
Experimental: (§1) The EASY-HIT assay (Kremb et al. [11]) is based on HIV-1 susceptible reporter cells (LC5-RIC) that contain a stably integrated fluorescent reporter gene that is activated upon successful HIV-1 infection and expression of the early viral proteins Rev and Tat. LC5-RIC were seeded into 96-well plates (μCLEAR-Plate Black; Greiner Bio-One, Kremsmuenster, Germany) using only the 60 inner wells to avoid variations in the culture conditions in the outer wells. Cells were seeded ata density of 10,000 cells per well 24 hours prior to infection. SPE fractions for the biological replicates C26, C14 and D5, were tested in a serial 1:2-dilution with a maximum of 3% methanol or approximately 75 μg/ml for the S. carteri fraction 1 mixture on the EASY-HIT assay [11]. For the HPLC fractions, SPE fraction 1 HPLC fractions 1-11, were tested on the EASY-HIT assay for biological replicates C26, C14 and D5. The authentic samples of HD, DBH, and oroidin were screened at 3.1 μM, 6.25 μM, 12.5 μM, 25 μM, and 50 μM. All samples were tested in triplicates. After compound addition, LC5-RIC cells were infected by adding 20 μl of HIV-1 inoculum (approx. 28.8 ng of p24 for HIV-1LAI derived from HEK 293T cells) to each well of the plate. Cells were incubated at standard cell culture conditions for 48 hours after infection and were subsequently assayed for reporter expression and cell viability.
(§2) Reporter expression was determined by measuring the total fluorescent signal intensity of each culture with a fluorescence microplate reader (Fluoroskan Ascent; ThermoFisher, Schwerte, Germany) at an excitation filter wavelength of 544 nm and an emission filter wavelength of 590 nm or with a Tecan infinite M200 (Tecan, Crailsheim, Germany) at the monochromator wavelengths 552 nm for excitation and 596 for emission. Statistical significances were determined using one-way ANOVA.

[3] = vendor data, Enzo Life Sciences, cited from earlier work
HIV-1 [4] = assay: microbe, parasite or virus in culture; details: Human immunodeficiency virus 1, read-out: concentration giving 50% inhibition of HIV-1 (viral replication)
Experimental: as §1, §2

HIV = details: concentrations not detailed; cited from earlier work

## NC1=NC(=O)/C(=C2\CCNC(=O)c3[nH]c(Br)cc32)N1 [HD, 10Z-Hymenialdisine]
LC5-RIC cells; 3.1 μM
  effect on cell vitality: without affecting cell vitality
LC5-RIC cells
  concentrations at which cytotoxicity was observed: greater than 3.1 μM
  cytotoxicity (in words): exhibited cytotoxicity
[1]
  anti-HIV-1 RT activity (in words): did not show anti-HIV-1 RT activity; also recorded: do not affect this enzyme
HIV-1 [2]; 3.1 μM
  HIV infection, % of untreated controls: < 40%
HIV-1 [2]; EASY-HIT, LC5-RIC cells
  inhibition of HIV-1 replication (in words): capable of inhibiting HIV-1 replication
[3]; DMSO
  solubility in DMSO: 5000 µg/mL (≈ 15.4 mM)
HIV-1 [4]
  IC50: 13 µM

## NC1=NC(=O)/C(=C2\CCNC(=O)c3[nH]ccc32)N1 [DBH, 4-(2-Amino-4-oxo-2-imidazolin-5-ylidene)-4,5,6,7-tetrahydropyrrolo[2,3-c]azepin-8-one]
LC5-RIC cells; 13 μM
  effect on cell vitality: without affecting cell vitality
LC5-RIC cells
  concentrations at which cytotoxicity was observed: greater than 13 μM
  cytotoxicity (in words): exhibited cytotoxicity
[1]
  anti-HIV-1 RT activity (in words): did not show anti-HIV-1 RT activity; also recorded: do not affect this enzyme
HIV-1 [2]; 13 μM
  HIV-1 infection, % of untreated controls: 30%
[3]
  solubility (in words): Soluble in 100% ethanol or DMSO
HIV-1 [4]
  IC50: 7 µM

## Nc1ncc(/C=C/CNC(=O)c2cc(Br)c(Br)[nH]2)[nH]1 [oroidin]
LC5-RIC cells
  cytotoxicity (in words): non-cytotoxic at all tested concentrations; also recorded: without causing cytotoxicity; also recorded: no associated toxicity
LC5-RIC cells; listed as Oroidin
  cytotoxicity (in words): nontoxic for cells at all tested concentrations
[1]; 25 μM
  inhibition of HIV-1 reverse transcriptase activity: up to 90%
[1]; concentrations greater than 25 μM
  inhibition of the HIV-1 RT enzyme: 90%
[1]
  anti-HIV-1 RT activity (in words): directly acting to inhibit the retroviral reverse transcriptase
HIV-1 [2]; 50 μM
  HIV-1 infection, % of untreated controls: 50%
  reduction of HIV-1 replication: up to 50%
HIV-1 [2]; EASY-HIT, LC5-RIC cells
  inhibition of HIV-1 replication (in words): capable of inhibiting HIV-1 replication
HIV-1 [2]; EASY-HIT, LC5-RIC cells, listed as Oroidin
  inhibition of HIV-1 replication (in words): weakest antiviral activity
HIV-1 [2]; read-out: concentration giving 50% inhibition of HIV-1 (viral replication), EASY-HIT, LC5-RIC cells, purchased pure compounds
  IC50: 50 µM
HIV
  ability to inhibit HIV replication, previous study: inactive
